Experimental data published in patent publication US5607926A, “Cephalosporin antibiotics” (Microcide Pharmaceuticals, Inc., priority 1995, dated 1997).
In brackets after ≈: the same amount, converted by molar mass. Counter-ions that a name gives are not always drawn. Like-named read-outs stand apart in the source and are kept apart here.

Columns and labels:
Assay type in all cases: cell-based
E. coli ATCC 25922 = test: In vitro antibacterial evaluation, MIC by agar dilution, E. coli ATCC 25922; details: Escherichia coli, ATCC25922, read-out: MIC
Outline: (§1)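 Agar dilution MIC (μg/mL) on Mueller-Hinton agar following NCCLS: twofold compound series from 128 μg/mL down to ≤0.25 μg/mL, each level in duplicate. Spots of about 10^4 cfu from log-phase cultures were incubated 16-20 h at 35-36 °C. MIC was the lowest concentration inhibiting growth.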

E. faecium ATCC 35667 = test: In vitro antibacterial evaluation, MIC by agar dilution, E. faecium ATCC 35667; details: Enterococcus faecium, ATCC35667, read-out: MIC
Outline: as §1

P. aeruginosa ATCC 27853 = test: In vitro antibacterial evaluation, MIC by agar dilution, P. aeruginosa ATCC 27853; details: Pseudomonas aeruginosa, ATCC27853, read-out: MIC
Outline: as §1

E. faecalis ATCC 29212 = test: In vitro antibacterial evaluation, MIC by agar dilution, E. faecalis ATCC 29212; details: Enterococcus faecalis, ATCC29212; E. faecalis ATCC 29212; read-out: MIC
Description: (§2) The compounds of the invention were evaluated against several β-lactamresistant bacteria strains by determining the minimum inhibitory concentration (MIC, μg/ml) of each compound with respect to each strain. The MIC, the lowest concentration of antibiotic which inhibits growth of the test organism, was determined by the agar dilution method.
(§3) To determine the MIC for bacterial isolates, the test compound was incorporated in a series of two-fold dilutions into liquified Mueller-Hinton agar. Upon solidification, a number of different bacterial strains were spot inoculated with a replicating device onto the agar surface. […] The procedures used in these studies have been standardized by the National Committee for Clinical Laboratory Standards (NCCLS), as per the NCCLS publication entitled METHODS FOR DILUTION ANTIMICROBIAL SUSCEPTIBILITY TESTS (1991), which is incorporated herein by reference.
(§4) Aliquots of antimicrobial agents were prepared in phosphate buffered saline (PBS) at pH 7.2. Tween 20 or DMSO was used as a solubilizing vehicle as needed. Standard methods of vortexing, sonicating and gentle heat were used to facilitate solubilizing the test agent. Typically, the concentration of the stock solution was 10× that of the highest drug concentration tested. A 1.28 mg/mL stock solution was used with a subsequent highest working concentration of 128 μg/mL. Serial two-fold dilutions were done through ≤0.25 μg/mL. Each drug level was tested in duplicate. Two-fold drug dilutions were done in sterile 50 mL tubes with a final drug volume of 5 mL. Upon the addition of 45 mL of molten agar, a 10-fold dilution resulted. Two, 25 mL. plates were then poured into 15×150 mm square Petri plates with grids and allowed to harden.
(§5) A control plate with a reference drug, either cefotaxime, vancomycin or imipenem, was used as the positive growth control. Stock concentrations of reference antibiotics were prepared and frozen at -80° C. Upon preparation, the control plates were sealed and stored in the refrigerator for up to 1 week prior to use; however, imipenem control plates had to be prepared just prior to use. All test plates were used within 24 hours of preparation.
(§6) Satisfactory results were obtained where the inoculum contained about 10^4 colony forming units (cfu) ±0.5 logs. Starting with pure cultures of the test isolates on agar plates, a few isolated colonies were transferred to a tube of nutrient broth and allowed to grow 4-6 hours at 35°-36° C. to reach log-phase growth. Dropwise addition of the broth culture to PBS was done to match a 0.5 McFarland turbidity standard equal to 10^8 cfu/mL. This was further diluted ten-fold in PBS to reach a working inoculum concentration of 10^7 cfu/mL. When 1 μL of the working inoculum was applied to the agar surface a concentration of about 10^4 cfu per spot was obtained.
(§7) Disposable sterile 1 μL loops were used to inoculate test plates, with each isolate in a designated grid on the agar plate. An alternate method of inoculation involved the use of a replica plater, a device with 48 steel pins allowing the simultaneous inoculation of multiple isolates. After the spots had dried, the plates were incubated at 35°-36° C. for 16-20 hours. Endpoints were assessed as the minimum inhibitory concentration (MIC) of antimicrobial agent.

[1] = test system: S. aureus Col8A (Meth^S)(lac^-); test: In vitro antibacterial evaluation, MIC by agar dilution, S. aureus Col8A; details: Staphylococcus aureus
Outline: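 Agar dilution per NCCLS (1991): two-fold dilutions from 128 μg/mL down to ≤0.25 μg/mL in Mueller-Hinton agar, each level in duplicate. Spots of about 10^4 cfu of log-phase culture; 16-20 h at 35°-36° C. MIC in μg/ml is the lowest concentration inhibiting growth.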

S. haemolyticus (Meth^R) = test: In vitro antibacterial evaluation, MIC by agar dilution, S. haemolyticus; details: Staphylococcus haemolyticus, read-out: MIC
Outline: as §1

S. aureus ATCC 25923 = test: In vitro antibacterial evaluation, MIC by agar dilution, S. aureus ATCC 25923; details: Staphylococcus aureus, ATCC25923
Description: as §2, §3, §4, §5, §6, §7

[2] = test system: S. aureus 76 (Meth^R)(lac^+); test: In vitro antibacterial evaluation, MIC by agar dilution, S. aureus 76; details: Staphylococcus aureus, read-out: MIC
Outline: as §1

[3] = test system: S. epidermidis ATCC 31432; test: In vitro antibacterial evaluation, MIC by agar dilution, S. epidermidis ATCC 31432; details: Staphylococcus epidermidis, ATCC31432
Description: as §2, §3, §4, §5, §6, §7

[4] = S. aureus ATCC 25923, read-out: MIC
[5] = S. epidermidis ATCC 31432, read-out: MIC

Row | SMILES | MIC (E. coli ATCC 25922) [µg/mL] | MIC (E. faecium ATCC 35667) [µg/mL] | MIC (P. aeruginosa ATCC 27853) [µg/mL] | MIC (E. faecalis ATCC 29212) [µg/mL] | MIC [1] [µg/mL] | MIC (S. haemolyticus (Meth^R)) [µg/mL] | MIC (S. aureus ATCC 25923) [µg/mL] | MIC [2] [µg/mL] | MIC [3] [µg/mL] | MIC (S. aureus ATCC 25923; [4]) [µg/mL] | MIC [3, 5] [µg/mL]
1 | N=C(N)SCc1ccc(SC2=C(C(=O)O)N3C(=O)[C@@H](NC(=O)Cc4ccccc4)[C@H]3SC2)cc1 [Cmpd 63, (7R)-7-[(Phenylacetyl)amino]-3-(4-isothiouroniummethylphenylthio)-3-cephem-4-carboxylate, inner salt] | 8 | 1 | > 32 | 1 | < 0.25 | 32 | < 0.25 | 16 | < 0.25 | – | –
2 | Nc1nc(/C(=N/O)C(=O)N[C@@H]2C(=O)N3C(C(=O)O)=C(Sc4ccccc4-c4ccccc4)CS[C@H]23)cs1 [Cmpd 42, (7R)-7-[(Z)-2-(aminothiazol-4-yl)-2-(hydroxyimino)acetamido]-3-(2-biphenylthio)-3-cephem-4-carboxylic acid] | 32 (≈ 57.8 µM) | 2 (≈ 3.61 µM) | > 32 | 2 (≈ 3.61 µM) | 0.5 (≈ 0.903 µM) | 16 (≈ 28.9 µM) | – | 8 (≈ 14.4 µM) | – | < 0.25 | < 0.25
3 | N#CCC(=O)N[C@@H]1C(=O)N2C(C(=O)O)=C(Sc3ccc(CSC(=N)N)cc3I)CS[C@H]12 [Cmpd 66, (7R)-7-[(Cyanoacetyl)amino]-3-(4-isothiouroniummethyl-2-iodophenylthio)-3-cephem-4-carboxylate, inner salt] | > 32 | 1 | > 32 | 4 | < 0.25 | 8 | < 0.25 | 8 | < 0.25 | – | –
4 | C=Cc1ccccc1SC1=C(C(=O)O)N2C(=O)[C@@H](NC(=O)Cc3ccccc3)[C@H]2SC1 [Cmpd 36, (7R)-7-[(Phenylacetyl)amino]-3-(2-vinylphenylthio)-3-cephem-4-carboxylic acid] | > 32 | 4 (≈ 8.84 µM) | > 32 | 2 (≈ 4.42 µM) | < 0.25 | 16 (≈ 35.4 µM) | < 0.25 | 8 (≈ 17.7 µM) | < 0.25 | – | –
5 | N#Cc1ccc(SC2=C(C(=O)O)N3C(=O)[C@@H](NC(=O)Cc4ccccc4)[C@H]3SC2)c([N+](=O)[O-])c1 [Cmpd 49, (7R)-7-[(Phenylacetyl)amino]-3-(4-cyano-2-nitrophenylthio)-3-cephem-4-carboxylic acid] | > 32 | 4 (≈ 8.06 µM) | > 32 | 4 (≈ 8.06 µM) | 0.5 (≈ 1.01 µM) | 32 (≈ 64.4 µM) | – | 16 (≈ 32.2 µM) | – | < 0.25 | < 0.25
6 | O=C(Cc1ccccc1)N[C@@H]1C(=O)N2C(C(=O)O)=C(Sc3nnnn3-c3ccccc3)CS[C@H]12 [Cmpd 94, (7R)-7-[(Phenylacetyl)amino]-3-(1-N-phenyltetrazol-5-ylthio)-3-cephem-4-carboxylic acid] | > 32 | 2 (≈ 4.04 µM) | > 32 | 1 (≈ 2.02 µM) | < 0.25 | > 32 | < 0.25 | 16 (≈ 32.4 µM) | < 0.25 | – | –
7 | O=C(Cc1ccccc1)N[C@@H]1C(=O)N2C(C(=O)O)=C(Sc3ccccc3CO)CS[C@H]12 [Cmpd 38, (7R)-7-[(Phenylacetyl)amino]-3-(2-hydroxymethylphenylthio)-3-cephem-4-carboxylic acid] | > 32 | 4 (≈ 8.76 µM) | > 32 | 4 (≈ 8.76 µM) | < 0.25 | 32 (≈ 70.1 µM) | < 0.25 | 16 (≈ 35 µM) | < 0.25 | – | –
8 | O=C(Cc1ccccc1)N[C@@H]1C(=O)N2C(C(=O)O)=C(Sc3ccccc3-c3cccs3)CS[C@H]12 [Cmpd 37, (7R)-7-[(Phenylacetyl)amino]-3-(2-(2-thienyl)phenylthio)-3-cephem-4-carboxylic acid] | > 32 | 2 (≈ 3.93 µM) | > 32 | 2 (≈ 3.93 µM) | < 0.25 | 16 (≈ 31.5 µM) | < 0.25 | 8 (≈ 15.7 µM) | < 0.25 | – | –
9 | O=C(Cc1ccccc1)N[C@@H]1C(=O)N2C(C(=O)O)=C(Sc3ccccc3-c3cnco3)CS[C@H]12 [Cmpd 95, (7R)-7-[(Phenylacetyl)amino]-3-(2-oxazol-5-ylphenylthio)-3-cephem-4-carboxylic acid] | > 32 | 4 (≈ 8.1 µM) | > 32 | 4 (≈ 8.1 µM) | < 0.25 | 16 (≈ 32.4 µM) | < 0.25 | 8 (≈ 16.2 µM) | < 0.25 | – | –
10 | O=C(Cc1ccccc1)N[C@@H]1C(=O)N2C(C(=O)O)=C(Sc3ccc(Br)cc3Br)CS[C@H]12 [Cmpd 39, (7R)-7-[(Phenylacetyl)amino]-3-(2,4-dibromophenylthio)-3-cephem-4-carboxylic acid] | > 32 | 2 (≈ 3.42 µM) | > 32 | 2 (≈ 3.42 µM) | < 0.25 | 8 (≈ 13.7 µM) | < 0.25 | 4 (≈ 6.85 µM) | < 0.25 | – | –
11 | COc1ccc(Cc2ccc(-c3ccccc3SC3=C(C(=O)O)N4C(=O)[C@@H](NC(=O)Cc5ccccc5)[C@H]4SC3)s2)cc1 [Cmpd 43, (7R)-7-[(Phenylacetyl)amino]-3-(2-(2-(4-methoxy-phenylmethyl)thien-5-yl)phenylthio)-3-cephem-4-carboxylic acid] | > 32 | 4 (≈ 6.36 µM) | > 32 | 4 (≈ 6.36 µM) | < 0.25 | 16 (≈ 25.4 µM) | < 0.25 | 8 (≈ 12.7 µM) | < 0.25 | – | –
12 | O=C(Cc1ccccc1)N[C@@H]1C(=O)N2C(C(=O)O)=C(Sc3ccc(C(F)(F)F)cc3)CS[C@H]12 [Cmpd 40, (7R)-7-[(Phenylacetyl)amino]-3-(4-trifluoromethylphenylthio)-3-cephem-4-carboxylic acid] | > 32 | 4 (≈ 8.09 µM) | > 32 | 4 (≈ 8.09 µM) | < 0.25 | 32 (≈ 64.7 µM) | < 0.25 | 16 (≈ 32.4 µM) | < 0.25 | – | –
13 | O=C(Cc1ccccc1)N[C@@H]1C(=O)N2C(C(=O)[O-])=C(Sc3ccc[n+](Cc4ccccc4)c3-c3ccccc3)CS[C@H]12 [Cmpd 83, (7R)-7-[(Phenylacetyl)amino]-3-(2-phenyl-N-benzylpyridin-3-iumthio)-3-cephem-4-carboxylate] | > 32 | 2 (≈ 3.37 µM) | > 32 | 1 (≈ 1.68 µM) | < 0.25 | 32 (≈ 53.9 µM) | < 0.25 | 16 (≈ 26.9 µM) | < 0.25 | – | –
14 | O=C(Cc1ccccc1)N[C@@H]1C(=O)N2C(C(=O)O)=C(Sc3cccc4c3CCCC4)CS[C@H]12 [Cmpd 56, (7R)-7-[(Phenylacetyl)amino]-3-(5,6,7,8-tetrahydronaphthalen-1-ylthio)-3-cephem-4-carboxylic acid] | > 32 | 4 (≈ 8.32 µM) | > 32 | 2 (≈ 4.16 µM) | < 0.25 | 16 (≈ 33.3 µM) | < 0.25 | 4 (≈ 8.32 µM) | < 0.25 | – | –
